Assay results: publication PMC5884906, “Single Administration of HBK-15—a Triple 5-HT1A, 5-HT7, and 5-HT3 Receptor Antagonist—Reverses Depressive-Like Behaviors in Mouse Model of Depression Induced by Corticosterone” (Molecular Neurobiology, 2017)
Where two headings read alike, the source gives them in different places.

Tests used:
[1] = pharmacokinetic study in plasma after i.v. and i.p. administration; type: in vivo, mice; settings: HBK-14 2.5 mg/kg, HBK-15 1.25 mg/kg; for AUC(0-inf) / C0: mouse plasma; for C0: read-out: C 0 (initial concentration); for Cmax / MRT / half-life / Tmax / bioavailability / clearance / Vd: CD-1, mouse, plasma; for Cmax: read-out: C max (maximum plasma concentration); for MRT: read-out: MRT (mean residence time) (converted); for half-life: read-out: t 0.5 (terminal half-life); for Tmax: read-out: t max (time to reach the maximum plasma concentration) (converted); for bioavailability: after i.p. administration, AUCi.p./AUCi.v., read-out: F (absolute bioavailability); for clearance: read-out: Cl (systemic clearance); for Vd: read-out: V d (volume of distribution at steady state)
Protocol: (§1) For pharmacokinetic study, HBK-14 and HBK-15 dissolved in saline were administered by an intravenous (i.v.) and intraperitoneal (i.p.) administration at a dose of 2.5 and 1.25 mg/kg, respectively. Blood samples were collected at 0 min (predose), 5 min, 15 min, 30 min, 60 min, 120 min, and 240 min after compounds administration. The blood and brain samples were collected under general anesthesia induced by i.p. injections of 50 mg/kg ketamine plus 8 mg/kg xylazine. Blood samples were collected into heparinized tubes. The samples were immediately centrifuged at 3500 rpm for 10 min, and plasma was collected. The brain and plasma samples were immediately frozen at −80 °C for further analysis.
Pharmacokinetic parameters were calculated by a non-compartmental approach from the average concentration values, using Phoenix WinNonlin software (Certara, Princeton, NJ 08540, USA). First-order elimination rate constant (λ z) was calculated by linear regression of time vs log concentration. Next, the area under the mean serum and brain concentration vs time curve extrapolated to infinity (AUC0→∞) was estimated using the log-linear trapezoidal rule (Eq. 1), where C n is the concentration of last sampling of each compound.1 AUC0→∞=∑i=1nCi+Ci+1/2⋅ti+1−ti+Cn/λz
Area under the first moment curve (AUMC0→∞) was estimated by calculation of the total area under the first moment curve and extrapolated area using the Eq. 2, where t n is the time of last sampling.2 AUMC0→∞=∑i=1nti⋅Ci+ti+1⋅Ci+1/2⋅ti+1−ti+tn⋅Cn/λz+Cn/λz2
Mean residence time (MRT) was calculated as3 MRT=AUMC0→∞/AUC0→∞
Total clearance (ClT) was calculated as4 ClT=Div/AUC0→∞
Volume of distribution at steady state (Vss) was calculated as5 Vss=Div⋅AUMC0→∞/AUC0→∞^2
(§2) The quantification of studied compounds in plasma and brain samples was accomplished using UFLC Nexera system (Shimadzu, Kyoto, Japan) coupled to the triple quadrupole mass spectrometer QTrap 5500 (Sciex, Framingham, MA, USA) equipped with Turbo V™ ion source. After preparation, the samples were injected (5 μL) onto Acquity UPLC BEH C18 (3.0 × 100 mm, 1.7 μm, Waters, Milford, MA, USA) analytical column. The mobile phases that consisted of ACN with 0.1% FA (A) and water with 0.1% FA (B) were delivered in isocratic elution mode (40% A, 60% B) at the flow rate of 550 μL/min. The total time of analysis was 8 min including 2 min of column equilibration.
Electrospray ionization process was performed in positive polarization, and the data acquisition was carried out in multiple reaction monitoring mode (MRM) for all analytes and their internal standard (HBK-11 [37]). The ion spray source settings were as follows: spray voltage 4.5 kV, heater temperature 450 °C, curtain gas 25 psi, source gas 1 40 psi, source gas 2 40 psi.
(§3) An amount of 50 μL of sample (plasma or brain homogenate) was transferred into the clean Eppendorf tube and spiked with 5 μL of internal standard solution (IS, 1 μg/mL) obtaining the final concentration of 100 ng/mL. After 5 min of mixing (1500 rpm), proteins were precipitated using 150 μL ACN. After 10 min of samples shaking (1500 rpm), the incubation step was performed (10 min, 4 °C). Next, samples were centrifuged (10,000 rpm, 10 min, 4 °C) and the supernatant was transferred into chromatographic vial for LC/MS/MS analysis.

[2] = distribution to brain after i.v. and i.p. administration; type: in vivo, mice; settings: for Kp: brain and plasma, HBK-14 2.5 mg/kg, HBK-15 1.25 mg/kg, read-out: brain/plasma ratio
Protocol: as §1, §2, §3
The brain homogenate was prepared maintaining the tissue: phosphate-buffered saline (PBS) ratio at 1:5. The homogenization was carried out employing IKA® T10 Basic ULTRA-TURRAX disperser (IKA Werke GmbH & Co. KG, Staufen, Germany). After homogenization, all samples were centrifuged (3000 rpm, 10 min, 4 °C) and 50 μL of supernatant was collected for further preparation. All samples were stored on ice during the preparation process.

[3] = target: serotonin 5-HT1A receptor; parameters: method as in PMID 26554929; settings: previous experiments; read-out: 5-HT1A receptor antagonist IC50; cited from earlier work
[4] = test system: corticosterone-treated mice; assay: forced swim test, single administration, corticosterone model; type: in vivo
Protocol: Mice were injected with corticosterone (s.c., 20 mg/kg) at random times during the light phase for consecutive 21 days (Fig. 1c). The dose and route of administration of corticosterone were based on studies performed by Zhao and colleagues. After the end of the procedure, next day 30 min before the test, corticosterone-treated mice were given (i.p.) saline, HBK-15 (1.25 mg/kg), fluoxetine (10 mg/kg), or ketamine (1 mg/kg) (Fig. 1c). Control mice received (i.p.) saline. The experimental groups consisted of eight randomly selected animals. We chose the dose of HBK-15 that was active in the chronic experiments (i.e., 1.25 mg/kg). The dose of ketamine was based on the studies performed by Pazini and colleagues. Animals were tested in the forced swim test and spontaneous locomotor activity test. After behavioral testing, mice were scarified and their hippocampi collected for biochemical analysis.
Forced swim test was performed according to the method described by Porsolt and colleagues and previously described. Mice were placed individually for 6 min in glass cylinders (height 25 cm, diameter 10 cm) containing […] (23–25 °C). The total time of immobility was recorded during the final 4 min of the test. The experiments were recorded and scored using aLab.io software by a trained observer blind to the treatments.

[5] = mouse, other: intravenous and intraperitoneal (both arms), after i.v. and i.p. administration

SMILES | AUC(0-inf) ([1]; CD-1, ip, i.p.) | AUC(0-inf) ([1]; CD-1, iv, i.v.) | C0 ([1]; CD-1, iv, i.v.) | Cmax ([1]; ip) | MRT ([1]; ip) | half-life ([1]; ip) | Tmax ([1]; ip) | bioavailability ([1]; ip) | clearance ([1]; iv) | MRT ([1]; iv) | Vd ([1]; iv) | half-life ([1]; iv) | t 0.5 (terminal half-life) ([1]; i.p.) | t 0.5 (terminal half-life) ([1]; i.v.) | Kp ([2]; CD-1, mouse, ip) | Kp ([2]; CD-1, mouse, iv) | Kp [2, 5] | IC50 [3] | other results
COc1ccccc1N1CCN(CCOCCOc2c(C)cccc2C)CC1.Cl [HBK-14, 1-[(2,6-Dimethylphenoxy)ethoxyethyl]-4-(2-methoxyphenyl)piperazine hydrochloride] | 560 ng·h/mL | 1720 ng·h/mL | 410 ng/mL | 269 ng/mL | 0.805 h | 0.633 h | 5 min | 15% | 24.2 mL/min/kg | 7.57 h | 11.2 L/kg | 5.38 h | 0.637 h | 5.378 h | 0.46 | 0.8 | < 1 | 64 nM | –
COc1ccccc1N1CCN(CCOCCOc2c(C)cccc2Cl)CC1.Cl [HBK-15, 1-[(2-chloro-6-methylphenoxy)ethoxyethyl]-4-(2-methoxyphenyl)piperazine hydrochloride] | 261 ng·h/mL | 484 ng·h/mL | 602 ng/mL | 359 ng/mL | 1.81 h | 1.4 h | 5 min | 54% | 40.2 mL/min/kg | 1.5 h | 3.5 L/kg | 1.18 h | 1.39 h | 1.18 h | 0.27 | 0.68 | < 1 | 19 nM | effect on corticosterone-induced increase in immobility ([4]; single 1.25 mg/kg i.p., 30 min before the test): reversed an increase in immobility; Tmax ([2]; CD-1, mouse, brain, ip, 1.25 mg/kg, read-out: time of maximal concentration in the brain (converted)): 5 min
C[C@]12C[C@H](O)[C@H]3[C@@H](CCC4=CC(=O)CC[C@@]43C)[C@@H]1CC[C@@H]2C(=O)CO [corticosterone] | – | – | – | – | – | – | – | – | – | – | – | – | – | – | – | – | – | – | increase in immobility vs control ([4]; acute experiment, corticosterone 20 mg/kg s.c. 21 days + saline): 20%
